Active and inactive are the calls of the source. The rule behind the calls is not given here.
Columns and labels:
[1] = tested on: Rattus norvegicus; experiment: Diuretic activity in po dosed albino Wistar-TNO rat assessed as 100% increase in urinary volume measured for 5 hrs; assay type: functional, Urine
[2] = tested on: Rattus norvegicus; experiment: Diuretic activity in po dosed albino Wistar-TNO rat assessed as increase in urinary volume measured for 5 hrs; assay type: functional, organism-based; conditions: Urine
[3] = tested on: Rattus norvegicus; experiment: Diuretic activity in albino Wistar-TNO rat assessed as increase in urinary volume at 50 mg/kg, po measured for 5 hrs; assay type: functional, organism-based; parameters: dose 50 mg/kg; conditions: Urine
[4] = organism: Rattus norvegicus; experiment: Ratio of furosemide ED200 to compound ED200 for diuretic activity in albino Wistar-TNO rat; assay type: functional, Urine
[5] = tested on: Rattus norvegicus; experiment: Diuretic activity in po dosed albino Wistar-TNO rat assessed as time duration of action; assay type: functional, Urine
[6] = organism: Mus musculus; experiment: Diuretic activity in mouse; assay type: functional, organism-based; conditions: Urine
[7] = tested on: Rattus norvegicus; experiment: Natriuretic activity in po dosed albino Wistar-TNO rat assessed as Na/K ratio; assay type: functional, organism-based
[8] = tested on: Rattus norvegicus; experiment: Diuretic activity in po dosed albino Wistar-TNO rat assessed as rapid onset of action; assay type: functional, organism-based; conditions: Urine
[9] = tested on: Rhesus monkey; experiment: Diuretic activity in rhesus monkey; assay type: functional, organism-based; conditions: Macaca mulatta; Urine
[10] = organism: Rattus norvegicus; experiment: Diuretic activity in experimentally-induced acidosis rat model; assay type: functional, organism-based; conditions: Urine
[11] = organism: Rattus norvegicus; experiment: Diuretic activity in experimentally-induced alkalosis rat model; assay type: functional, organism-based; conditions: Urine
[12] = tested on: Rattus norvegicus; experiment: Diuretic activity in po dosed albino Wistar-TNO rat measured after chronic administration; assay type: functional, organism-based; conditions: Urine
[13] = organism: Canis familiaris; experiment: Natriuretic activity in non-loaded Beagle dog; assay type: functional, organism-based; conditions: Canis lupus familiaris
[14] = tested on: Rattus norvegicus; experiment: Toxicity in po dosed albino Wistar-TNO rat at 50 times effective dose for diuresis measured after chronic administration; assay type: organism-based; conditions: in vivo
[15] = tested on: Hamster; experiment: Diuretic activity in hamster; assay type: functional, organism-based; conditions: Cricetinae; Urine
[16] = tested on: Rattus norvegicus; experiment: Toxicity in po dosed albino Wistar-TNO rat assessed as uric acid excretion; assay type: organism-based; conditions: in vivo
[17] = tested on: Rattus norvegicus; experiment: Diuretic activity in experimentally-induced oedema rat model; assay type: functional, organism-based; conditions: Urine

CCOCC1COc2c(cc3[nH]cc(C(=O)OCC)c(=N)c3c2Cl)O1 (stereo not given)
ED200 [1]: 2 mg/kg

CCOCC1COc2c(cc3[nH]cc(C(=O)OCC)c(=O)c3c2Br)O1 (stereo not given)
ED200 [1]: 0.4 mg/kg

NS(=O)(=O)c1cc(C(=O)O)c(NCc2ccco2)cc1Cl [FUROSEMIDE]
ED200 [1]: 28 mg/kg | Activity [2]: Dose-dependent effect

NS(=O)(=O)c1cc2c(cc1Cl)N=CNS2(=O)=O [CHLOROTHIAZIDE]
ED200 [1]: 30 mg/kg | Activity [2]: Dose-dependent effect

CCOCC1COc2cc3c(=O)c(C(=O)OCC)c[nH]c3cc2O1 (stereo not given)
ED200 [1]: 3.8 mg/kg

CCOCC1COc2c(cc3[nH]cc(C(=O)OCC)c(=O)c3c2C(F)(F)F)O1 (stereo not given)
ED200 [1]: 0.5 mg/kg

CCOCC1COc2c(c(Cl)c3[nH]cc(C(=O)OCC)c(=O)c3c2Cl)O1 (stereo not given)
Activity [3]: inactive

CCOCC1COc2cc3c(=S)c(C(=O)OCC)c[nH]c3cc2O1 (stereo not given)
ED200 [1]: 13 mg/kg

CCOCC1COc2c(cc3[nH]cc(C(=O)OCC)c(=O)c3c2Cl)O1 (stereo not given) [QUINCARBATE]
Ratio [4]: 200 | Time [5]: 8 h | ED200 [1]: 0.08 mg/kg | Activity [6]: inactive | Activity [7]: Active | Activity [8]: Active | Activity [9]: Active | Activity [10]: Active | Activity [11]: Active | Activity [12]: Active | Activity [13]: Active | Activity [14]: Non-toxic | Activity [15]: inactive | Activity [2]: Dose-dependent effect | Activity [16]: Toxic | Activity [17]: Active

CCOCC1COc2c(cc3[nH]cc(C(=O)OCC)c(=O)c3c2[N+](=O)[O-])O1 (stereo not given)
ED200 [1]: 3 mg/kg

CCOCC1COc2cc3[nH]cc(C(=O)OCC)c(=O)c3c(Cl)c2O1 (stereo not given)
ED200 [1]: 2.5 mg/kg

CCOCC1COc2cc3c(=O)c(C(=O)OCC)c[nH]c3c(Cl)c2O1 (stereo not given)
Activity [3]: inactive

CCOCC1COc2c(cc3[nH]cc(C(=O)O)c(=O)c3c2Cl)O1 (stereo not given)
Ratio [4]: 200 | Time [5]: 8 h | ED200 [1]: 0.14 mg/kg | Activity [6]: inactive | Activity [7]: Active | Activity [8]: Active | Activity [9]: Active | Activity [10]: Active | Activity [11]: Active | Activity [12]: Active | Activity [13]: Active | Activity [14]: Non-toxic | Activity [15]: inactive | Activity [2]: Dose-dependent effect | Activity [16]: Toxic | Activity [17]: Active

Reference: ChEMBL document CHEMBL3272074, “A new class of diuretics with the 1,4-dioxino(2,3-g)quinolone structure” (J Med Chem, 1976)
